# Toxic doses and inconclusive results are not listed.
# System: BDF1 mice, P388 leukemia ip, median survival T/C
# Assay: NCI In Vivo Anticancer Drug Screen. Data for tumor model P388 Leukemia (intraperitoneal) in B6D2F1 (BDF1) mice
# Conditions: endpoint: median survival time, higher = longer survival
# Method in brief: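 Mice carrying the transplantable tumour receive compound or vehicle. Survival is followed in each arm, and the treated measure is divided by the vehicle measure.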
# [1] = dose: 25.0 mg/kg/injection, schedule: Q01DX009 (ip), vehicle: saline
# [2] = dose: 50.0 mg/kg/injection, schedule: Q01DX009 (ip), vehicle: saline
# [3] = dose: 100.0 mg/kg/injection, schedule: Q01DX009 (ip), vehicle: saline with Tween-80
# [4] = dose: 100.0 mg/kg/injection, schedule: Q04DX003 (ip), vehicle: Klucel (hydroxypropylcellulose) (HPC)
# [5] = dose: 200.0 mg/kg/injection, schedule: Q01DX009 (ip), vehicle: saline with Tween-80
# [6] = dose: 200.0 mg/kg/injection, schedule: Q04DX003 (ip), vehicle: Klucel (hydroxypropylcellulose) (HPC)
# [7] = dose: 400.0 mg/kg/injection, schedule: Q01DX009 (ip), vehicle: saline with Tween-80
structure (smiles),measurement,setting,value
c1ccc(Cn2ccnc2C2OCCO2)cc1,T/C,"dose: 6.25 mg/kg/injection, schedule: Q01DX009 (ip), vehicle: water",95 % of control
same,T/C,"dose: 12.5 mg/kg/injection, schedule: Q01DX009 (ip), vehicle: water",88 % of control
same,T/C,"dose: 12.5 mg/kg/injection, schedule: Q04DX003 (ip), vehicle: water",104 % of control
same,T/C,"dose: 25.0 mg/kg/injection, schedule: Q04DX003 (ip), vehicle: water",101 % of control
same,T/C,"dose: 50.0 mg/kg/injection, schedule: Q01DX009 (ip), vehicle: water",112 % of control
same,T/C,"dose: 50.0 mg/kg/injection, schedule: Q04DX003 (ip), vehicle: water",107 % of control
same,T/C,"dose: 100.0 mg/kg/injection, schedule: Q01DX009 (ip), vehicle: water",93 % of control
same,T/C,"dose: 100.0 mg/kg/injection, schedule: Q04DX003 (ip), vehicle: water",92 % of control
same,T/C,"dose: 200.0 mg/kg/injection, schedule: Q01DX009 (ip), vehicle: water",87 % of control
Cn1c(O)c(C=N)c(=O)n(C)c1=O,T/C,"dose: 12.0 mg/kg/injection, schedule: Q01DX009 (ip), vehicle: saline",118 % of control
same,T/C,[1],109 % of control
same,T/C,"dose: 25.0 mg/kg/injection, schedule: Q04DX003 (ip), vehicle: saline",92 % of control
same,T/C,[2],100 % of control
same,T/C,"dose: 50.0 mg/kg/injection, schedule: Q04DX003 (ip), vehicle: saline",100 % of control
COc1c2ccoc2nc2c(OC)c3c(cc12)OCO3,T/C,"dose: 12.5 mg/kg/injection, schedule: Q01DX009 (ip), vehicle: saline",109 % of control
same,T/C,[1],107 % of control
same,T/C,[2],109 % of control
C1=CC2C3=CC1C=CC32 (stereo not given),T/C,"dose: 18.75 mg/kg/injection, schedule: Q04DX003 (ip), vehicle: Klucel (hydroxypropylcellulose) (HPC)",91 % of control
same,T/C,"dose: 37.5 mg/kg/injection, schedule: Q04DX003 (ip), vehicle: Klucel (hydroxypropylcellulose) (HPC)",95 % of control
same,T/C,"dose: 75.0 mg/kg/injection, schedule: Q04DX003 (ip), vehicle: Klucel (hydroxypropylcellulose) (HPC)",91 % of control
COc1ccc(/C=N/n2c(C)cc(C)c(C#N)c2=O)c(OC)c1OC,T/C,[3],100 % of control
same,T/C,[4],115 % of control
same,T/C,[5],86 % of control
same,T/C,[6],100 % of control
same,T/C,[7],113 % of control
same,T/C,"dose: 400.0 mg/kg/injection, schedule: Q04DX003 (ip), vehicle: Klucel (hydroxypropylcellulose) (HPC)",100 % of control
C[C@]12CC[C@@H]3c4ccc(Oc5nc(N6CC6)nc(N6CC6)n5)cc4CC[C@H]3[C@@H]1CCC2=O,T/C,"dose: 3.12 mg/kg/injection, schedule: Q01DX009 (ip), vehicle: saline with Tween-80",91 % of control
same,T/C,"dose: 6.25 mg/kg/injection, schedule: Q01DX009 (ip), vehicle: saline with Tween-80",100 % of control
COc1cc([N+](=O)[O-])cc(OC)c1OC,T/C,"dose: 50.0 mg/kg/injection, schedule: Q01DX009 (ip), vehicle: saline with Tween-80",100 % of control
same,T/C,[3],94 % of control
same,T/C,[5],102 % of control
same,T/C,[7],91 % of control
C(=C\c1cccnc1)/c1ccncc1,T/C,"dose: 66.0 mg/kg/injection, schedule: Q01DX009 (ip), vehicle: Klucel (hydroxypropylcellulose) (HPC)",158 % of control
same,T/C,"dose: 66.0 mg/kg/injection, schedule: Q01DX009 (ip), vehicle: saline with Tween-80",108 % of control
same,T/C,"dose: 100.0 mg/kg/injection, schedule: Q01DX009 (ip), vehicle: Klucel (hydroxypropylcellulose) (HPC)",178 % of control
same,T/C,[3],94 % of control
same,T/C,[4],100 % of control
same,T/C,"dose: 150.0 mg/kg/injection, schedule: Q01DX009 (ip), vehicle: Klucel (hydroxypropylcellulose) (HPC)",158 % of control
same,T/C,"dose: 150.0 mg/kg/injection, schedule: Q01DX009 (ip), vehicle: saline with Tween-80",108 % of control
same,T/C,[6],86 % of control
